Measurements: article PMC10067442, “In vivo quantitative high-throughput screening for drug discovery and comparative toxicology” (Disease Models & Mechanisms, 2023)
“Also recorded” adds a separate entry of the source. Residues, ends and D or L forms follow the SMILES beside them. *: point of attachment. Cbz = O=C(OCc1ccccc1)*

Assays:
[1] = system: C. elegans strain PE254; assay: C. elegans LSC qHTS viability assay, Anti-Infectives library primary screen (BG-fed, 384-well); format: in vivo, Caenorhabditis elegans; conditions: for activity on C. elegans viability in primary qHTS (in words): seven-point titration
Protocol: Levamisole, ivermectin and albendazole were purchased from Sigma-Aldrich. Stock solutions of all compounds were prepared at 10 mM in DMSO, and ivermectin was diluted to a 10 µM working dilution in DMSO. […] Of these, 284 (38%) are approved for clinical use in the United States, 32 (4%) were previously marketed for use in the United States, and 62 (8%) are used clinically outside of the United States. […] DMSO stock solutions of were arrayed in Echo-qualified 384-well cyclic olefin copolymer plates (Labcyte) in qHTS inter-plate dilution with seven concentrations, 1:5 dilution, resulting in a final concentration range of 2.5–20 mM high concentration titrated to 160 nM to 1.28 µM low concentration ([Yasgar et al., 2008]). ‘Assay-ready’ plates were prepared in 384-well uClear microtiter plates (Greiner BioOne), with compounds acoustically dispensed at 250 nl per well with an Echo 555 in the above inter-plate titration array. Two plates with DMSO added across the compound field at the same volume were prepared as screening controls (‘uniformity plates’). DMSO vehicle control was added to every well of column 1, and levamisole cytotoxicity control was added at a high concentration of 10 mM in wells 1–8 and titrated 1:3, starting at a high concentration of 10 mM to 4.57 µM in wells 9–16 of column 2 of every plate. Additionally, ivermectin, levamisol and albendazole were plated as internal controls on one assay plate in 16-point, 1:2 titration down six replicate columns per compound, starting at a high concentration of 10 µM (ivermectin) or 10 mM (levamisole and albendazole). Assay-ready plates were sealed and frozen at −80°C until use.
C. elegans strain PE254 were collected from 12 NGM plates as above, transferred to 250 ml S medium supplemented with OP50 E. coli pellet collected from 2 l overnight culture, and grown for 5 days at 21°C with vigorous shaking in an Incu-Shaker Mini Shaking Incubator (Benchmark Scientific, Inc.). Eggs were axenized as above and hatched overnight in M9 buffer at 21°C and shaken at 65 rpm. Assay ready plates were thawed and allowed to equilibrate to ambient temperature. BGs in S medium (30 µl/well) at an OD600=0.85 were manually added across plates with a Capp pipette. Synchronized L1 worms from above were collected, diluted and plated at ten worms/30 µl/well with a Capp pipette into assay-ready microtiter plates pre-plated with BGs and compounds (240-fold dilution). […] No ethical approval or guidance is needed for working with nematodes.
Data from the Anti-Infectives screen were normalized by plate to corresponding intra-plate controls as previously described ([Inglese et al., 2006]). Assay statistics were calculated using the same respective controls. Total object ‘GFP’ area (µm^2) and number of worms were normalized to the average signal of DMSO-treated wells as zero percent neutral control, and the average signal of 41.7 µM levamisole-treated wells as −100% activity. In-house software was used to fit the resulting inter-plate titration data to the standard Hill equation, and concentration–response curves were classified by activity as previously described ([Southall et al., 2009]). Curve fits assignments of −1.1, −1.2, −2.1, −2.2 and −3 were considered active and visually confirmed.

[2] = system: C. elegans strain PE254; assay: Life-stage distribution analysis by COPAS flow cytometry after 7-day treatment; format: in vivo, Caenorhabditis elegans; conditions: 7-day treatment at ∼EC75-80, mixed population of 2000 worms/well
Protocol: After 7 days of compound treatment in six-well culture plates seeded with a mixed population of 2000 C. elegans strain PE254, a life-stage distribution analysis was determined by TOF and EC using the COPAS FP BioSorter, followed by bulk collection in a 50 ml conical tube for use in proteomics studies.

[3] = system: C. elegans strain PE254; assay: 384-well LSC C. elegans viability assay, life-stage sorted worms on BGs or OP50 live bacteria (assay development); format: in vivo, Caenorhabditis elegans
[4] = system: C. elegans strain PE254; assay: Follow-up 11-point re-test, C. elegans LSC viability; format: in vivo, Caenorhabditis elegans; conditions: for EC50: day 7, screening control in re-test, 4 replicate wells; for activity on C. elegans viability in follow-up (in words): 11-point titration, day 7, GFP area and worm number
Protocol: C. elegans strain PE254 were collected from six NGM plates and washed. […] Assay-ready plates were prepared as above with an 11-point, 1:3 titration of 96 compounds identified as active from the qHTS screen based on curve classification and maximum response. […] Data were normalized as above, and concentration–response curves were fit in Prism with nonlinear regression log(agonist) versus response–variable slope (four parameters) fit.

[5] = system: HEK293 cells; assay: HEK293 cell viability (CellTiter-Glo, ATP levels); format: cell-based; conditions: Homo sapiens, 24 h post-treatment, screening control, 14 replicate wells
Protocol: Mammalian cell toxicity was evaluated in HEK293 cells (ATCC) using ATP levels as an indicator of metabolically active cells. Assays were performed in 1536-well plates (Greiner white/solid bottom, high base), and luminescence measurements were made on a ViewLux (Perkin Elmer) ([Martinez et al., 2021]; [Solinski et al., 2019]). Assay-ready plates in 1536-well format were prepared as above using the 384-well Echo-compatible source plates; 25 nl of a seven-point titration with 1:5 dilution starting at a high concentration of 2.5–20 mM of compound was added to respective wells with an Echo 555 acoustic dispenser. A titration of digitonin, 20 mM to 610 nM in DMSO (83.3 µM to 2.5 nM final assay concentration), was used as an intraplate cell toxicity control titration. DMSO vehicle and 83.3 μM digitonin final concentration (64 or 32 replicate wells per assay plate, respectively) were used to establish the assay signal window. Plates were stored at −80°C until use and equilibrated to ambient temperature prior to cell dispense. Then, 1500 cells were added at 6 μl assay volume/well (240-fold dilution) across plates with a Multidrop Combi dispenser (Thermo Fisher Scientific) in standard Dulbecco's modified Eagle medium. Cell viability-dependent luminescence levels were read following the addition of 4 μl CellTiter-Glo (Promega) after 24 h incubation with the test compound.

[6] = system: C. elegans; conditions: total GFP area, days 3 and 7 post chemical exposure
Protocol: The qHTS was performed with similar statistics as observed for the previous anti-infectives library screen (Table 3), and, in this case, we used total GFP area to score the activity measured on days 3 and 7 post chemical exposure.
C. elegans strain PE254 were collected from 12 NGM plates as above, transferred to 250 ml S medium supplemented with OP50 E. coli pellet collected from 2 l overnight culture, and grown for 5 days at 21°C with vigorous shaking in an Incu-Shaker Mini Shaking Incubator (Benchmark Scientific, Inc.). Eggs were axenized as above and hatched overnight in M9 buffer at 21°C and shaken at 65 rpm. Assay ready plates were thawed and allowed to equilibrate to ambient temperature. BGs in S medium (30 µl/well) at an OD600=0.85 were manually added across plates with a Capp pipette. Synchronized L1 worms from above were collected, diluted and plated at ten worms/30 µl/well with a Capp pipette into assay-ready microtiter plates pre-plated with BGs and compounds (240-fold dilution). Plates were read on an Acumen eX3 LSC as above, with resolution settings of X=2 µm and Y=16 µm within 4 h of plating and at 3- and 7-day time points (see Table S15 for further detail).

[7] = treatment day 2, internal control, 16-point titration, six replicate wells, read-out: Treatment day, EC50 (GFP area)
[8] = treatment day 3, internal control, 16-point titration, six replicate wells, read-out: Treatment day, EC50 (GFP area)
[9] = treatment day 4, internal control, 16-point titration, six replicate wells, read-out: Treatment day, EC50 (GFP area)
[10] = treatment day 5, internal control, 16-point titration, six replicate wells, read-out: Treatment day, EC50 (GFP area)
[11] = treatment day 6, internal control, 16-point titration, six replicate wells, read-out: Treatment day, EC50 (GFP area)
[12] = treatment day 7, internal control, 16-point titration, six replicate wells, read-out: Treatment day, EC50 (GFP area)

Compound: CC(C)C[C@H](NC(=O)[C@H](Cc1ccccc1)NC(=O)c1cnccn1)B(O)O [Bortezomib]
- EC50 ([1]; Caenorhabditis elegans, Fig. 3D, read-out: qHTS potency based on GFP area): 0.888 µM
- EC50 ([1]; Caenorhabditis elegans, Fig. 3D, read-out: qHTS potency based on worm number): 0.592 µM
- effect on life stage viability (in words) [2]: potent larval-stage depletion
- effect on life stage viability (in words) ([2]; listed as 5): affecting life-stage progression or number

Compound: Ivermectin
- activity on C. elegans viability in primary qHTS (in words) ([1]; GFP area): active
- EC50 [1, 7]: 0.017 ± 0.0039 µM
- EC50 [1, 8]: 0.0169 ± 0.0023 µM
- EC50 [1, 9]: 0.014 ± 0.0017 µM
- EC50 [1, 10]: 0.0146 ± 0.0011 µM
- EC50 [1, 11]: 0.0136 ± 0.0011 µM
- EC50 [1, 12]: 0.0124 ± 0.0012 µM
- EC50 ([3]; all life stages grown on BGs, by day 1, read-out: half-maximal effective concentration (EC50)): ~0.001 µM

Compound: c1ccc([C@H]2CN3CCSC3=N2)cc1 [Levamisole]
- EC50 ([1]; day 3, intra-plate screening control, averaged from 21 replicates, normalized to 41.7 μM levamisole, read-out: EC50 (GFP area)): 9.37 ± 0.93 µM
- EC50 ([1]; day 3, intra-plate screening control, averaged from 21 replicates, read-out: EC50 (number of worms)): 5.96 ± 2.4 µM
- EC50 ([1]; day 7, intra-plate screening control, averaged from 21 replicates, read-out: EC50 (GFP area)): 7.99 ± 1.44 µM
- EC50 ([1]; day 7, intra-plate screening control, averaged from 21 replicates, read-out: EC50 (number of worms)): 5.74 ± 0.91 µM
- activity on C. elegans viability in primary qHTS (in words) ([1]; GFP area): active
- EC50 [1, 7]: 12.7 ± 4.7 µM
- EC50 [1, 8]: 14 ± 5.5 µM
- EC50 [1, 9]: 5.6 ± 1.5 µM
- EC50 [1, 10]: 5.3 ± 0.6 µM
- EC50 [1, 11]: 4.9 ± 0.4 µM
- EC50 [1, 12]: 5 ± 0.8 µM
- EC50 values (in words) ([3]; all life stages, both media (BGs and live bacteria), 7-day time course): low-micromolar range
- EC50 ([4]; read-out: EC50 using #worms): 2.45 µM
- EC50 ([4]; read-out: EC50 using GFP area): 2.23 µM

Compound: C[C@@H]1CC[C@@]2(OC1)O[C@H]1[C@@H](O)[C@H]3[C@@H]4CC[C@H]5C[C@@H](O[C@@H]6O[C@H](CO)[C@H](O[C@@H]7O[C@H](CO)[C@@H](O)[C@H](O[C@@H]8OC[C@@H](O)[C@H](O)[C@H]8O)[C@H]7O[C@@H]7O[C@H](CO)[C@H](O)[C@H](O[C@@H]8O[C@H](CO)[C@@H](O)[C@H](O)[C@H]8O)[C@H]7O)[C@H](O)[C@H]6O)[C@H](O)C[C@]5(C)[C@H]4CC[C@]3(C)[C@H]1[C@@H]2C [Digitonin, digitonin]
- EC50 [5]: 31.3 µM

Compound: COC(=O)[C@]1(C)CC[C@]2(C)CC[C@]3(C)C4=CC=C5C(=CC(=O)C(O)=C5C)[C@]4(C)CC[C@@]3(C)[C@@H]2C1 [Pristimerin, pristimerin]
- activity on C. elegans viability in follow-up (in words) [4]: potent and/or efficacious toxicity

Compound: O=C(C1CCCCC1)N1CC(=O)N2CCc3ccccc3C2C1 (stereo not drawn) [Praziquantel]
- curve classification (CC) ([1]; GFP area, day 7): 4
- activity on C. elegans viability in primary qHTS (in words) ([1]; GFP area): not detected; also recorded: not identified as active
- effect on life stage viability (in words) [2]: no effect

Compound: O=C(/C=C\n1cnc(-c2cc(C(F)(F)F)cc(C(F)(F)F)c2)n1)NNc1cnccn1 [Selinexor]
- activity on C. elegans viability in primary qHTS (in words) ([1]; GFP area): low potency and efficacy
- activity on C. elegans viability in follow-up (in words) [4]: moderately active
- effect on life stage viability (in words) [2]: inactive

Compound: CC(C)(C)c1cc(C=C(C#N)C#N)cc(C(C)(C)C)c1O [Tyrphostin A9, tyrphostin A9]
- activity on C. elegans viability in follow-up (in words) [4]: best activity; also recorded: potent and/or efficacious toxicity

Compound: oligomycin A
- activity on C. elegans viability in follow-up (in words) [4]: best activity; also recorded: potent and/or efficacious toxicity

Compound: O=C(Oc1ccc([N+](=O)[O-])cc1)N1CCC(C(O)(c2ccc3c(c2)OCO3)c2ccc3c(c2)OCO3)CC1 [JZL-184]
- activity on C. elegans viability in primary qHTS (in words) ([1]; GFP area): low potency and efficacy
- activity on C. elegans viability in follow-up (in words) [4]: moderately active

Compound: CC(=O)OC[C@H]1O[C@@H]([S-])[C@H](OC(C)=O)[C@@H](OC(C)=O)[C@@H]1OC(C)=O.CCP(CC)CC.[Au+] [Auranofin, auranofin]
- activity on C. elegans viability in follow-up (in words) [4]: best activity; also recorded: potent and/or efficacious toxicity

Compound: O=C(/C=C\n1cnc(-c2cc(C(F)(F)F)cc(C(F)(F)F)c2)n1)NNc1ccccn1 [Verdinexor, verdinexor]
- activity on C. elegans viability in primary qHTS (in words) ([1]; GFP area): low potency and efficacy
- activity on C. elegans viability in follow-up (in words) [4]: moderately active

Compound: Clc1ccc(C(c2ccc(Cl)cc2)C(Cl)(Cl)Cl)cc1 [DDT, dichlorodiphenyltrichloroethane]
- activity in Tox21 sub-library C. elegans qHTS (in words) [6]: potent activity

Compound: CCOCn1c(-c2ccc(Cl)cc2)c(C#N)c(Br)c1C(F)(F)F [Chlorfenapyr, chlorfenapyr]
- activity in Tox21 sub-library C. elegans qHTS (in words) [6]: identified

Compound: CC(C)C[C@@H](C=O)NC(=O)[C@H](CC(C)C)NC(=O)[C@H](CC(C)C)NC(=O)OCc1ccccc1 [MG-132] (Cbz-Leu-Leu-Leu-aldehyde)
- activity on C. elegans viability in primary qHTS (in words) ([1]; GFP area): Inactive
- effect on life stage viability (in words) [2]: no discernable effect
